Each compound was assayed against T1, ROCKII or ROKα (Homo sapiens, UniProt O75116) (assay: Determination of Rho kinase inhibition (γ33P ATP, Streptavidin Flash Plate)). Settings: ATP 40 μM, enzyme 0.1 ng/μl, 20 min at room temperature, tested as salt or free base obtained in the examples.
T1 construct: purchased Upstate 14-451
Format: biochemical
Method: Determination of Rho Kinase Inhibition
To measure Rho-kinase inhibition, IC50 values were determined according to the following protocol:
Buffer: 25 mM Tris pH7.5; 0.02% BSA; 5% Glycerol; 0.008% Triton X100; 2% DMSO, 1 mM DTT; 1 mM MgCl2; 0.5 μCi/well γ^33P ATP
Enzyme: ROCKII or ROKα) (Upstate, Catalog #14-451 Lot #24880U) 0.1 ng/μl Final concentration of ATP in reaction mixture 40 μM
Biotinylated substrate, diluted to 0.25 μM with buffer described above (without ATP)
• 1. 10 μl Tris buffer (±Inhibitor) • 2. Add 30 μL of enzyme solution • 3. Start the reaction with 30 μL of mix substrate/ATP/ATP33 • 4. Incubate for 20 min at room temperature • 5. Stop reaction with 30 μL of 50 mM EDTA • 6. Transfer 50 μL of stopped solution to Streptavidin Flash Plate plus, Perkin Elmer, SMP 103A • 7. Incubate for 30 min at RT • 8. Wash 4 times with 300 μl of PBS/0.1% Tween 20 • 9. Radioactivity in the well was determined

T1 sequence (O75116 whole entry): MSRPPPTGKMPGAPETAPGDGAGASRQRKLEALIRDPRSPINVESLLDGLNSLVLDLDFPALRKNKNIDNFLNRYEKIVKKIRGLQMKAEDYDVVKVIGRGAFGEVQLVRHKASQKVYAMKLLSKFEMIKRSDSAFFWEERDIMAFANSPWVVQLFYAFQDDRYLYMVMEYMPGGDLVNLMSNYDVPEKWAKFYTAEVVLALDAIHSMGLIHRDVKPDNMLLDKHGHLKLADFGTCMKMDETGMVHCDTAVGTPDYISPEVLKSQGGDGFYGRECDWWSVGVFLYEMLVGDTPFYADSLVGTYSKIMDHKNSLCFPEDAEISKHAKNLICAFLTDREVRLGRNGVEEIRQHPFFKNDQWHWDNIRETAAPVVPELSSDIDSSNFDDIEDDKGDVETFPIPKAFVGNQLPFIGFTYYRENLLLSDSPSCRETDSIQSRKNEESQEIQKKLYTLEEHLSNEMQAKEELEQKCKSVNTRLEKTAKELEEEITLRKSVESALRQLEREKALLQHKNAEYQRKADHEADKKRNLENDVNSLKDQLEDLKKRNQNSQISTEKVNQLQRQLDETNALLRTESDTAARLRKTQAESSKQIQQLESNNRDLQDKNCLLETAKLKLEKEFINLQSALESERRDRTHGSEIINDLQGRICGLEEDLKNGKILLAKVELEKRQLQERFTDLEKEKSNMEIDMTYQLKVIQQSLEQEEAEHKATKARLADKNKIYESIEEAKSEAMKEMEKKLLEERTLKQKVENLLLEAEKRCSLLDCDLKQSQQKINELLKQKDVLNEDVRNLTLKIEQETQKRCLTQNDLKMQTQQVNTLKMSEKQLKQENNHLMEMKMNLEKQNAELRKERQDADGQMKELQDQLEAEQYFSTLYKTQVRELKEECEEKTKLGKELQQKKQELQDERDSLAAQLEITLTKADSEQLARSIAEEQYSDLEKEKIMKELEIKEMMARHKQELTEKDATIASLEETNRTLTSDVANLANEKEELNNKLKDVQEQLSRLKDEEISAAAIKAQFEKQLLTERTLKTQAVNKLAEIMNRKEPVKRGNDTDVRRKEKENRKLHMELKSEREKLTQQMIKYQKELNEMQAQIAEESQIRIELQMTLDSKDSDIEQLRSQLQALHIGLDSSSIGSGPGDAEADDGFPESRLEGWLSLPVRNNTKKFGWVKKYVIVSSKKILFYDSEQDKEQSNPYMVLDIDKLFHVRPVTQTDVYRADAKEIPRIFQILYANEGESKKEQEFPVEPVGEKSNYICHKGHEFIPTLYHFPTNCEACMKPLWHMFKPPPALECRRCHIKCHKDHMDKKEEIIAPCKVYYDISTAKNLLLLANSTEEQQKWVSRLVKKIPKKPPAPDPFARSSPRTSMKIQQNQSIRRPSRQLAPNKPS

Q: Which pIC50 does the source give for `O=c1[nH]ccc2cc(OC3CCNCC3)ccc12` [Example 12, 6-(Piperidin-4-yloxy)-2H-isoquinolin-1-one] here?
A: +++++ (6.0 ≦ pIC50)

Q: `O=c1[nH]ccc2cc(OC3CCNCC3)c(Br)cc12` [Example 17, 7-Bromo-6-(piperidin-4-yloxy)-2H-isoquinolin-1-one] was tested. Which pIC50 did it give?
A: +++++ (6.0 ≦ pIC50)

Q: `Cc1c[nH]c(=O)c2ccc(OC3CCNCC3)cc12` [Example 21] was tested. Which pIC50 did it give?
A: +++++ (6.0 ≦ pIC50)

Q: How did the pIC50 turn out when `O=c1[nH]ccc2cc(OC3CCNCC3)c(F)cc12` [Example 23] was run?
A: +++++ (6.0 ≦ pIC50)

Q: With `COc1cc2c(=O)[nH]ccc2cc1OC1CCNCC1` [Example 25] as the compound, how does the pIC50 read?
A: ++++ (5.0 ≦ pIC50 < 6.0)

Q: How did the pIC50 turn out when `Cc1cc2c(=O)[nH]cc(C)c2cc1OC1CCNCC1` [Example 28] was run?
A: +++++ (6.0 ≦ pIC50)

Q: With `CCc1c[nH]c(=O)c2ccc(OC3CCNCC3)cc12` [Example 31] as the compound, how does the pIC50 read?
A: +++++ (6.0 ≦ pIC50)

Q: Which pIC50 does the source give for `CCc1c[nH]c(=O)c2cc(F)c(OC3CCNCC3)cc12` [Example 32] here?
A: ++++ (5.0 ≦ pIC50 < 6.0)

Q: `CN1CCC(Oc2ccc3c(=O)[nH]ccc3c2)CC1` [Example 40] was tested. Which pIC50 did it give?
A: +++++ (6.0 ≦ pIC50)

Q: How did the pIC50 turn out when `O=c1[nH]ccc2cc(OC[C@H]3CCCNC3)ccc12` [Example 49] was run?
A: ++++ (5.0 ≦ pIC50 < 6.0)

Q: For `O=c1[nH]cc(Br)c2cc(OC3CCNCC3)ccc12` [Example 52, 4-Bromo-6-(piperidin-4-yloxy)-2H-isoquinolin-1-one], which pIC50 is on record?
A: +++++ (6.0 ≦ pIC50)

Q: Which pIC50 does the source give for `Oc1nccc2cc(OC3CCNCC3)c(Cl)cc12` [Example 54, 7-Chloro-6-(piperidin-4-yloxy)-2H-isoquinolin-1-one] here?
A: +++++ (6.0 ≦ pIC50)

Q: With `CC(C)N1CCC(Oc2cc3ccnc(O)c3cc2Cl)CC1` [Example 55, 7-Chloro-6-(1-isopropyl-piperidin-4-yloxy)-2H-isoquinolin-1-one] as the compound, how does the pIC50 read?
A: +++++ (6.0 ≦ pIC50)

Q: With `O=c1[nH]ccc2cc(OC3CCN(CC4CC4)CC3)ccc12` [Example 58] as the compound, how does the pIC50 read?
A: +++++ (6.0 ≦ pIC50)

Q: Which pIC50 does the source give for `CCCN1CCC(Oc2cc3cc[nH]c(=O)c3cc2F)CC1` [Example 101] here?
A: +++++ (6.0 ≦ pIC50)

Q: For `Cc1cc2c(=O)[nH]ccc2cc1OC1CCN(CC2CCOC2)CC1` (centres unmarked) [Example 265], which pIC50 is on record?
A: +++++ (6.0 ≦ pIC50)

Q: With `Cc1cc2c(=O)[nH]ccc2cc1OC1CCN(Cc2ccsc2)CC1` [Example 266] as the compound, how does the pIC50 read?
A: +++++ (6.0 ≦ pIC50)

Q: How did the pIC50 turn out when `Cc1cc2c(=O)[nH]ccc2cc1OC1CCN(Cc2ccc(S(C)(=O)=O)cc2)CC1` [Example 275] was run?
A: +++++ (6.0 ≦ pIC50)

Q: For `Cc1cc2c(=O)[nH]ccc2cc1OC1CCN(Cc2ccccn2)CC1` [Example 276], which pIC50 is on record?
A: +++++ (6.0 ≦ pIC50)

Q: `O=c1[nH]ccc2c(Cl)c(OC3CCNCC3)ccc12` [Example 309, 5-Chloro-6-(piperidin-4-yloxy)-2H-isoquinolin-1-one] was tested. Which pIC50 did it give?
A: +++++ (6.0 ≦ pIC50)
